Data set [1] relates to platelet aggregation (collagen). In words: Anti-platelet aggregation effect, collagen-induced. The class given is cell-based, Hartley male guinea-pigs. Conditions: Cavia porcellus; collagen 2 μg/ml; guinea-pig platelet rich plasma, 37° C., 0.5% DMSO. How it is done: (§1) Blood was collected from the abdominal artery of Hartley male guinea-pigs (weight: about 300 g) into a syringe containing 1/10 volume 3.8% sodium citrate. The blood thus obtained was subjected to a centrifugation at 160×g for 10 minutes at room temperature to obtain platelet rich plasma (PRP). Furthermore, the residue was subjected to a centrifugation at 1500×g for 15 minutes to obtain platelet poor plasma (PPP). The measurement was carried out by diluting PRP with PPP to 300,000/mm^3. The measurement range of transmittance was adjusted to 0% in the case of PRP and to 100% in the case of PPP. Thereafter, a test compound dissolved in 100% dimethylsulfoxide (DMSO) was added to PRP (the final concentration of DMSO: 0.5%). After incubation at 37° C., 1000 rpm for 2 minutes, an aggregating agent was added to measure an aggregation curve. The anti-platelet aggregation effect of the test compound was expressed by a concentration (IC50 :μM) at which the aggregation of control was 50% inhibited. The aggregating agents used were ADP (the final concentration: 5 μM), collagen (the final concentration: 2 μg/ml) and U46619 (the final concentration: 0.5 μM). The measurement of platelet aggregation was carried out using NBS HEMA Tracer 601.

Data set [2] has as its system platelet aggregation (ADP). As to the kind of experiment: Anti-platelet aggregation effect, ADP-induced. The class given is cell-based, Hartley male guinea-pigs. Conditions: Cavia porcellus; ADP 5 μM; guinea-pig platelet rich plasma, 37° C., 0.5% DMSO. How it is done: as §1
The test system of data set [3] is cucumber. As to the kind of experiment: Toxicity in gray mold prevention test on cucumber. The class given is in vivo, cucumber (variety: Sagamihanjiro). On the procedure: (§2) Onto 1.5 leaf-stage cucumber (variety: Sagamihanjiro) which had been grown in a 7 cm-diameter pot was sprayed, using a spray gun, a drug solution produced by diluting an emulsifiable concentrate containing the present compound with water to the predetermined concentration, at 10 ml per pot.
(§3) On the following day, the first leaf on which was sprayed the drug solution was plucked off, and onto the surface of the leaf was inoculated a mycelia disk which had been prepared from the tip of a cell cluster of Botrytis cinerea cultured at 20° C. for 2 days in a PSA (potato sucrose agar) medium using a 4 mm-diameter cork borer. Then, the cucumber leaf was allowed to stand for 5 days at 20° C. in a moist chamber, the diameter of the diseased spots which formed were measured, and the degree of control was determined according to the following equation. Here, iprodion (trade name: Lobral) was used as a control preparation.

A short description of the next data set: Solubility in solvents. The format is physicochemical.
For data set [4], the system named is Botrytis cinerea. As to the kind of experiment: Test for controlling gray mold on cucumber (curative test). Conditions: (1-length treated/untreated)×100. The format is in vivo. On the procedure:
Test for Controling Gral Mold (Botrytis cinerea) on Cucumber (Curative Test)
The first leaf was plucked off from 1.5 leaf-sage cucumber (variety: Sgamihanjiro) which had been grown in a 7 cm-diameter pot, and a mycelia disk of Botrytis cinerea was inoculated in the same manner as in the Experiment 1. Then, the cucumber leaf was allowed to stand for 2 days at 20° C. in a moist chamber, and when the disease spots reached approximately […] in diameter, a drug solution produced by deluting an emulsion containing the present compound with water to the desired concentration was sprayed at 10 ml per leaf using a spray gun, and after drying in air the leaf was allowed to stand for 3 days at 20° C. in a moist chamber.
The lengths of the newly developed diseases spots were measured, and the preventive value was determined using the following equation.
Preventive value=(1-length of diseased spots of drug-treated group/length of diseased spots of untreated group)×100

Data set [5] deals with Botrytis cinerea. In words: Test for controlling gray mold on cucumber (prevention test). The conditions noted are these: (1-diameter treated/untreated)×100. The format is in vivo. How it is done:
Test for Controlling Gray Mold (Botrytis cinerea) on Cucumber (Prevention Test)
as §2, §3
Preventive value=(1-diameter of disease spots of drug-treated group/diameter of disease spots of untreated group)×100

For the next data set, the system named is Rhynchosporium secalis. In words: Minimum growth inhibition concentration, agar plate dilution method. The format is cell-based. From the text:
(§4) The measurement of the minimum growth inhibition concentration (MIC) was made following the agar plate dilution method using an agar medium containing the compound A.

For the next data set, the system named is Sclerotinia cinerea. The description is as above. The class given is cell-based.
Excerpt: as §4

Data set [6] concerns Sclerotinia sclerotiorum. Described as above. The format is cell-based.
Excerpt: as §4

Data set [7] deals with Botrytis cinerea. Described as above. The format is cell-based.
Excerpt: as §4

In another data set the test system is Aspergillus nigar. The data set is described as above. The class given is cell-based.
Excerpt: as §4

Data set [8] deals with platelet aggregation (U46619). As to the kind of experiment: Anti-platelet aggregation effect, U46619-induced. The format is cell-based, Hartley male guinea-pigs. Conditions: Cavia porcellus; U46619 0.5 μM; guinea-pig platelet rich plasma, 37° C., 0.5% DMSO. How it is done: as §1
Data set [9] has as its system cucumber. In words: Toxicity in Sclerotinia rot prevention test on cucumber. The format is in vivo, cucumber (variety: Sagamihanjiro). How it is done: as §2
(§5) On the following day, the first leaf on which was sprayed the drug solution was plucked off, and onto the surface of the leaf was inoculated a mycelia disk which had been prepared from the tip of a cell cluster of Sclerotinia sclerotiorum cultured at 20° C. for 1 day in a PSA medium by using a 4 mm-diameter cork borer. Then, the cucumber leaf was allowed to stand for 3 days at 20° C. in a moist chamber, the diameter of the disease spots which formed were measured measured, and the preventive value was determined according to the following equation.

Data set [10] has as its system Sclerotinia sclerotiorum. As to the kind of experiment: Test for controlling cucumber Sclerotinia rot (prevention test). Conditions: Sclerotinia rot on cucumber, (1-diameter treated/untreated)×100. The class given is in vivo. How it is done: Test for Controling Cucumber Sclerotinia Rot (Sclerotinia sclerotiorum) (Prevention Test)
as §2, §5
Preventive value=(1-diameter of diseased spots of drug-treated group/diameter of disease spots of untreated group)×100

pIC50: −log10 of the molar value. Converted amounts (≈) assume the structure as drawn.

These results are taken from patent publication US5346919A, “Anti-bacterial substances and microorganisms which produce them” (Nissan Chemical Industries, Ltd., priority 1992, dated 1994).

As a reminder, the pIC50 is the IC50 on a negative log10 scale, so that one unit is a factor of ten. A lower pIC50 goes with a large IC50. One may read the MIC as the smallest concentration in the dilution series that meets the test's criterion for growth inhibition.

Turning to `CCCCC1CC2=C(C(=O)OC2=O)C(C(O)CCCC)CC2=C1C(=O)OC2=O` (stereo not drawn) [Compound A], the pIC50 in data set [1] is 4.38; in [2], 3.73; in data set [8], 3.32. Further, the Toxicity result in the data set on cucumber [3] (25 ppm spraying), in the data set on cucumber [3] (50 ppm spraying) and with cucumber [3] (100 ppm spraying) was “none” each time. Besides, the Solubility in solvents entry was “readily soluble” in the data set “Solubility in solvents” (chloroform, ethyl acetate, methanol) and “sparingly soluble” in “Solubility in solvents” (water). Moreover, the Preventive value in the data set on Botrytis cinerea [4] (50 ppm spraying) is 73; in the data set with Botrytis cinerea [4] (100 ppm spraying), 79; in the data set with Botrytis cinerea [5] (25 ppm spraying), 100; in the data set on Botrytis cinerea [5] (50 ppm spraying) it was 100; in the data set with Botrytis cinerea [5] (100 ppm spraying), 100. For the same compound, the MIC with Rhynchosporium secalis was 1.56 µg/mL (≈ 4 µM); against Sclerotinia cinerea it was 3.13 µg/mL (≈ 8.02 µM); in the data set on Sclerotinia sclerotiorum [6], 1.56 µg/mL (≈ 4 µM); against Botrytis cinerea [7], 0.78 µg/mL (≈ 2 µM); in the data set on Aspergillus nigar, 3.13 µg/mL (≈ 8.02 µM).

Consider `CC(C)NC(=O)N1CC(=O)N(c2cc(Cl)cc(Cl)c2)C1=O` [Iprodion, iprodion, reference compound], for which the Toxicity result with cucumber [9] (50 ppm spraying), with cucumber [9] (100 ppm spraying), in the data set on cucumber [3] (25 ppm spraying), with cucumber [3] (50 ppm spraying) and with cucumber [3] (100 ppm spraying) was “none” in each case. Moreover, the Preventive value with Botrytis cinerea [4] (50 ppm spraying) is 70; in the data set with Botrytis cinerea [4] (100 ppm spraying), 75; with Botrytis cinerea [5] (25 ppm spraying), 25; in the data set on Botrytis cinerea [5] (50 ppm spraying) it was 95; in the data set with Botrytis cinerea [5] (100 ppm spraying), 100; in the data set with Sclerotinia sclerotiorum [10] (50 ppm spraying), 100. This compound also had a Preventive value with Sclerotinia sclerotiorum [10] (100 ppm spraying) of 100.
